This note sets out measurements from patent US9340555B2, “Compounds as tyrosine kinase modulators” (Allergan, Inc., priority 2009, dated 2016).

pIC50: −log10 of the molar value.

For test [1], the target named is human VEGF receptor (VEGFR-2) (Homo sapiens (Human), UniProt P35968). Kind of test: VEGFR2 Kinase Assay (Enzymic VEGFR2). The format is biochemical. Particulars: His-VEGFR-2 cytoplasmic domain, 3.6 µM ATP. As for the experimental part:
VEGFR2 Kinase Assay The cytoplasmic domain of the human VEGF receptor (VEGFR-2) was expressed as a Histidine-tagged fusion protein following infection of insect cells using an His engineered baculovirus. […] Kinase assays were performed in 96 well microtiter plates that were coated overnight with 30 µg of poly-Glu-[…]:1) in 10 mM Phosphate Buffered Saline (PBS), pH 7.2-7.4. The plates were incubated with 1% BSA and then washed four times with PBS prior to starting the reaction. […] Reactions were initiated by the addition 0.5 ng of purified protein. Following a ten minute incubation at 25° C., the reactions were washed four times with PBS containing 0.05% Tween-20. 100 µl of a monoclonal anti-phosphotyrosine antibody-peroxidase conjugate was diluted 1:10000 in PBS-Tween-20 and added to the wells for 30 minutes. Following four washes with PBS-Tween-20, 100 µl of 0-phenylenediamine Dihydrochloride in Phosphate-citrate buffer, containing urea hydrogen peroxide, was added to the wells for 7 minutes as a colorimetric substrate for the peroxidase. […] IC50 values for compound inhibition were calculated directly from graphs of optical density (arbitrary units) versus compound concentration following subtraction of blank values.

The next test addresses VEGFR2 (Homo sapiens (Human), UniProt P35968). Kind of test: VEGF Stimulated Ca++ Signal In Vitro (Cellular VEGFR2, FLIPR). The format is cell-based. Particulars: HUVEC, VEGF stimulation (5 ng/mL), intracellular calcium. (Calcium flux is commonly read through the fluorescence of an indicator in the cells.)
The next test deals with PDGFRβ (Homo sapiens (Human), UniProt P09619). Kind of test: Enzymic PDGFRβ. It counts as biochemical.
PDGFRβ, sequence (P09619 33-1106, species assumed): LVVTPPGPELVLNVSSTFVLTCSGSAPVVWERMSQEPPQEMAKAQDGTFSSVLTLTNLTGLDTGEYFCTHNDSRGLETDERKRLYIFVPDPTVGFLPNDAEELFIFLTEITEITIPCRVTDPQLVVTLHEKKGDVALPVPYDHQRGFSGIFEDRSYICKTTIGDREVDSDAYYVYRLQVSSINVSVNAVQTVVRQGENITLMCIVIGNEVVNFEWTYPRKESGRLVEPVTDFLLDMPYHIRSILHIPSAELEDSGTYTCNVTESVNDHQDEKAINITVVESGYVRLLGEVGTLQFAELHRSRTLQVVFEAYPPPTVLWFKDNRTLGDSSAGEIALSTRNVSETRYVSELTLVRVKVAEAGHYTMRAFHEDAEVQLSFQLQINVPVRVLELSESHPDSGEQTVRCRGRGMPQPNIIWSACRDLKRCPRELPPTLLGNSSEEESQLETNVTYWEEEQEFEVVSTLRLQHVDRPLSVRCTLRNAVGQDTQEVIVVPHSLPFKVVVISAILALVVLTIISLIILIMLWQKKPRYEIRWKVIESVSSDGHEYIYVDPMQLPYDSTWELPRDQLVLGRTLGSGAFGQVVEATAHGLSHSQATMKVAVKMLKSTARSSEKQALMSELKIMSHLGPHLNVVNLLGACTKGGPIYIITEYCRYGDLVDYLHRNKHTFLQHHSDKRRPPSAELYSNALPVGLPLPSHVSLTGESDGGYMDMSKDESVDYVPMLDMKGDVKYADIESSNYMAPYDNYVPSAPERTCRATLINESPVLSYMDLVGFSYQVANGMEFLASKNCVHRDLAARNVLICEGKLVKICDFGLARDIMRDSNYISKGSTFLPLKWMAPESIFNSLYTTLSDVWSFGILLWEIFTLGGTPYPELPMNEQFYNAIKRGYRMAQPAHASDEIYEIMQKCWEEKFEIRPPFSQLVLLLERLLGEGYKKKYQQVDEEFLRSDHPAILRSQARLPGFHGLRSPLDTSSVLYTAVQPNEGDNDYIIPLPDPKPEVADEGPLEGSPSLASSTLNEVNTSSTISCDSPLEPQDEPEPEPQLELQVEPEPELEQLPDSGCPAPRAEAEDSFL

VEGFR2, sequence (P35968 20-1356): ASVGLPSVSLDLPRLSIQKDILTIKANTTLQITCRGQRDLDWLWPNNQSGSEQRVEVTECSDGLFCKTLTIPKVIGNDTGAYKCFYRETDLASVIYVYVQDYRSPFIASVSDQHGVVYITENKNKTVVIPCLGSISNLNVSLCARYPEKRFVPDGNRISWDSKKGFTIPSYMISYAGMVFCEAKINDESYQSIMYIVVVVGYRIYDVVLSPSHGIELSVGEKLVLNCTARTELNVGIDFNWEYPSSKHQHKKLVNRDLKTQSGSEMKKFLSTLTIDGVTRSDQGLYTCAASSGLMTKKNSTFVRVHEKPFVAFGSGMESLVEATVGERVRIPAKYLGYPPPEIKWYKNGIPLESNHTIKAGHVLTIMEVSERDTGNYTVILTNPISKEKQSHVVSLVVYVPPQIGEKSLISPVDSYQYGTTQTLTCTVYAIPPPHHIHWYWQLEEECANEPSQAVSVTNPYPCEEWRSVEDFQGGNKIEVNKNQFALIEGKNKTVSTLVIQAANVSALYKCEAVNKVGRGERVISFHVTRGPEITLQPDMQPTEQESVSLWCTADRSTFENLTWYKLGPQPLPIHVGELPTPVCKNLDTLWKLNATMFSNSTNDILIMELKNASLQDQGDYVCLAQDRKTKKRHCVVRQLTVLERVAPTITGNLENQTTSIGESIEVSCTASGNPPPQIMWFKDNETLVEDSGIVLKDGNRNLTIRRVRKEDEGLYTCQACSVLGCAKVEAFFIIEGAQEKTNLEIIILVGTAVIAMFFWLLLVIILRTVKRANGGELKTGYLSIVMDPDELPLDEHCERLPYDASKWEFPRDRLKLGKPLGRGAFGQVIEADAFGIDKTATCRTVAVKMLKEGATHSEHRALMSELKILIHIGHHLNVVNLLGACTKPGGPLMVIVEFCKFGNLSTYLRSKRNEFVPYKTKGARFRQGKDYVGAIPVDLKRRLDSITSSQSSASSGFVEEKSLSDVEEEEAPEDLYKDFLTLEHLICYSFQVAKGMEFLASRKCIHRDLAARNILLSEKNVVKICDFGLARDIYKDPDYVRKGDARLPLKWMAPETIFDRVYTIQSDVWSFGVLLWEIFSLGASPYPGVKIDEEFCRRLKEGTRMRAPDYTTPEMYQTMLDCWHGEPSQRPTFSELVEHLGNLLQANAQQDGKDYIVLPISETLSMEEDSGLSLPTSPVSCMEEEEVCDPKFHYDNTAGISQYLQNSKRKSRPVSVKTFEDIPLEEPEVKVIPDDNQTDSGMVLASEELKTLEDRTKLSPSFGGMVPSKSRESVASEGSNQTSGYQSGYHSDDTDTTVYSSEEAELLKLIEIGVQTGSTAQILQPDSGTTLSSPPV
human VEGF receptor (VEGFR-2), sequence (P35968 786-1356): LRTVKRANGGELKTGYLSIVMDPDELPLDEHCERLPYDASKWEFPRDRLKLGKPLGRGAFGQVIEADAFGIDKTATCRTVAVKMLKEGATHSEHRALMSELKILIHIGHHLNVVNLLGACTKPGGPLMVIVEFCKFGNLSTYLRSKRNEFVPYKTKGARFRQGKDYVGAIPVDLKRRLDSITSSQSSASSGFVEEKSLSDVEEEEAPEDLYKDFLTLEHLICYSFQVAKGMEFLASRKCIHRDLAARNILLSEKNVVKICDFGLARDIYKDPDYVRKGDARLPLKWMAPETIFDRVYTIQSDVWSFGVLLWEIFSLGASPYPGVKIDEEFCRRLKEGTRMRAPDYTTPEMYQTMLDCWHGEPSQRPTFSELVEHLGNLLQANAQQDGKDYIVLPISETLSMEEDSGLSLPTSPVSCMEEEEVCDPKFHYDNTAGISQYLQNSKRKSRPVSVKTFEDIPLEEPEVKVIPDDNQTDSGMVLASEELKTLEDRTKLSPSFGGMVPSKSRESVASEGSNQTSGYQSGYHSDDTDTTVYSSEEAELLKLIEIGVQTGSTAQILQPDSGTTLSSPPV

For the compound `COC(=O)[C@@H]1C[C@@H](O)CN1CCCNC(=O)c1cc2nccc(Oc3ccc(NC(=O)Nc4cc(C)ccc4F)cc3)c2s1` (relative stereo) [Example 17, methyl rel-(2R,4S)-1-{3-[({7-[4-({[(2-fluoro-5-methylphenyl)amino]carbonyl}amino)phenoxy]thieno[3,2-b]pyridin-2-yl}carbonyl)amino]propyl}-4-hydroxypyrrolidine-2-carboxylate], the pIC50 (in general, the negative decadic logarithm of the IC50, by convention in mol/L) in test [1] is 8.40.

For `COC(=O)c1cc2nccc(Oc3ccc(NC(=O)Nc4cc(C)ccc4F)cc3)c2s1` [Compound F1, Methyl 7-[4-({[(2-fluoro-5-methylphenyl)amino]carbonyl}amino)phenoxy]thieno[3,2-b]pyridine-2-carboxylate], the pIC50 was 8.70 on VEGFR2 and 7.74 in test [1].

As to `COC(=O)c1cc2nccc(Oc3cccc(NC(=O)Nc4cc(C)ccc4F)c3)c2s1` [Compound F3, Methyl 7-[3-({[(2-fluoro-5-methylphenyl)amino]carbonyl}amino)phenoxy]thieno[3,2-b]pyridine-2-carboxylate], the negative logarithm of the IC50 (pIC50) is 7.46 at VEGFR2 and 7.68 in test [1].

Consider `COC(=O)c1cc2nccc(-c3ccc(NC(=O)Nc4cc(C)ccc4F)cc3)c2s1` [Compound F4, Methyl 7-[4-({[(2-fluoro-5-methylphenyl)amino]carbonyl}amino)phenyl]thieno[3,2-b]pyridine-2-carboxylate], for which the pIC50 (at VEGFR2; in test [1]) was 5.00 each time.

With `Cc1ccc(F)c(NC(=O)Nc2ccc(Oc3ccnc4cc(C(=O)NCCC(=O)O)sc34)cc2)c1` [Compound F6, 3-[({7-[4-({[(2-fluoro-5-methylphenyl)amino]carbonyl}amino)phenoxy]thieno[3,2-b]pyridin-2-yl}carbonyl)amino]propanoic acid], in test [1], the pIC50 was 7.96.

For the compound `Cc1ccc(F)c(NC(=O)Nc2ccc(Oc3ccnc4cc(C(=O)NCCC(=O)O)sc34)cc2F)c1` [Compound F7, 3-[({7-[3-fluoro-4-({[(2-fluoro-5-methylphenyl)amino]carbonyl}amino)phenoxy]thieno[3,2-b]pyridin-2-yl}carbonyl)amino]propanoic acid], the pIC50 in test [1] was 8.00.

Consider `Cc1ccc(F)c(NC(=O)Nc2ccc(Oc3ccnc4cc(C(=O)O)sc34)cc2F)c1` [Compound F8, 7-[3-fluoro-4-({[(2-fluoro-5-methylphenyl)amino]carbonyl}amino)phenoxy]thieno[3,2-b]pyridine-2-carboxylic acid], for which the pIC50 in test [1] is 7.96.

`Cc1ccc(F)c(NC(=O)Nc2ccc(Oc3ccnc4cc(C(=O)N[C@@H](CCC(=O)OC(C)(C)C)C(=O)O)sc34)cc2F)c1` [Example 48, (2S)-5-tert-butoxy-2-[({7-[3-fluoro-4-({[(2-fluoro-5-methylphenyl)amino]carbonyl}amino)phenoxy]thieno[3,2-b]pyridin-2-yl}carbonyl)amino]-5-oxopentanoic acid]: the pIC50 in test [1] is 8.15.

As for `Cc1ccc(F)c(NC(=O)Nc2ccc(Oc3ccnc4cc(C(=O)NCCCO)sc34)cc2F)c1` [Example 53, 7-[3-fluoro-4-({[(2-fluoro-5-methylphenyl)amino]carbonyl}amino)phenoxy]-N-(3-hydroxypropyl)thieno[3,2-b]pyridine-2-carboxamide], the pIC50 in test [1] is 7.92.

In test [1], `Cc1ccc(F)c(NC(=O)Nc2ccc(Oc3ccnc4cc(C(=O)N=S(C)(C)=O)sc34)cc2F)c1` [Example 58, N-[dimethyl(oxido)-lambda˜4˜-sulfanylidene]-7-[3-fluoro-4-({[(2-fluoro-5-methylphenyl)amino]carbonyl}amino)phenoxy]thieno[3,2-b]pyridine-2-carboxamide] showed a pIC50 of 8.52.

As for `Cc1ccc(F)c(NC(=O)Nc2ccc(Oc3ccnc4cc(C(=O)N=S(C)(C)=O)sc34)cc2)c1` [Example 61, N-[dimethyl(oxido)-lambda˜4˜-sulfanylidene]-7-[4-({[(2-fluoro-5-methylphenyl)amino]carbonyl}amino)phenoxy]thieno[3,2-b]pyridine-2-carboxamide], the pIC50 in test [1] is 8.70.

For the compound `COC(=O)c1cc2nccc(Oc3cccc(NC(=O)c4occc4C)c3)c2s1` [Example 71, Methyl 7-{3-[(3-methyl-2-furoyl)amino]phenoxy}thieno[3,2-b]pyridine-2-carboxylate], the results for the negative-log IC50 (pIC50) (on PDGFRβ; in test [1]) were 6.77 and 7.62, respectively.

With `CCNC(=O)c1cc2nccc(Oc3cccc(NC(=O)c4occc4C)c3)c2s1` [Example 73, N-ethyl-7-{3-[(3-methyl-2-furoyl)amino]phenoxy}thieno[3,2-b]pyridine-2-carboxamide], the figures for the pIC50 (against PDGFRβ; in test [1]) were 6.72 and 8.05, respectively.

As to `CCN(CC)C(=O)c1cc2nccc(Oc3cccc(NC(=O)c4occc4C)c3)c2s1` [Example 74, N,N-diethyl-7-{3-[(3-methyl-2-furoyl)amino]phenoxy}thieno[3,2-b]pyridine-2-carboxamide], the pIC50 on PDGFRβ was 6.37; in test [1] it was 7.57.

In the case of `Cc1ccoc1C(=O)Nc1cccc(Oc2ccnc3cc(C(=O)NCCCO)sc23)c1` [Example 76, N-(3-hydroxypropyl)-7-{3-[(3-methyl-2-furoyl)amino]phenoxy}thieno[3,2-b]pyridine-2-carboxamide], the results for the negative-log IC50 (pIC50) (on PDGFRβ; in test [1]) were 6.84 and 7.96, respectively.

Regarding `Cc1ccoc1C(=O)Nc1cccc(Oc2ccnc3cc(C(=O)NCCO)sc23)c1` [Example 77, N-(2-hydroxyethyl)-7-{3-[(3-methyl-2-furoyl)amino]phenoxy}thieno[3,2-b]pyridine-2-carboxamide], the pIC50 against PDGFRβ was 6.41; in test [1] it was 7.77.

For the compound `Cc1ccoc1C(=O)Nc1cccc(Oc2ccnc3cc(C(=O)NCCc4nn[nH]n4)sc23)c1` [Example 78, 7-{3-[(3-methyl-2-furoyl)amino]phenoxy}-N-[2-(2H-tetrazol-5-yl)ethyl]thieno[3,2-b]pyridine-2-carboxamide], the pIC50 was 6.49 against PDGFRβ and 7.85 in test [1].

As to `Cc1ccoc1C(=O)Nc1cccc(Oc2ccnc3cc(C(=O)OCCCO)sc23)c1` [Example 79, 3-hydroxypropyl 7-{3-[(3-methyl-2-furoyl)amino]phenoxy}thieno[3,2-b]pyridine-2-carboxylate], the pIC50 is 6.84 against PDGFRβ and 8.05 in test [1].

For `Cc1ccoc1C(=O)Nc1cccc(Oc2ccnc3cc(C(=O)OCCO)sc23)c1` [Example 80, 2-hydroxyethyl 7-{3-[(3-methyl-2-furoyl)amino]phenoxy}thieno[3,2-b]pyridine-2-carboxylate], the negative-log IC50 (pIC50) at PDGFRβ is 6.67; in test [1], 7.77.

Take `COCCOC(=O)c1cc2nccc(Oc3cccc(NC(=O)c4occc4C)c3)c2s1` [Example 81, 2-methoxyethyl 7-{3-[(3-methyl-2-furoyl)amino]phenoxy}thieno[3,2-b]pyridine-2-carboxylate]: the negative logarithm of the IC50 (pIC50) against PDGFRβ is 6.56; in test [1], 7.72.

Turning to `COC(=O)CNCCCNC(=O)c1cc2nccc(Oc3cccc(NC(=O)c4occc4C)c3)c2s1` [Example 82, Methyl [(3-{[(7-{3-[(3-methyl-2-furoyl)amino]phenoxy}thieno[3,2-b]pyridin-2-yl)carbonyl]amino}propyl)amino]acetate], the pIC50 at PDGFRβ is 6.62; in test [1], 7.96.
